Molecules are shown by their SMILES.

This note sets out measurements from US20110105494A1, “HETEROARYL SUBSTITUTED ARYLINDENOPYRIMIDINES AND THEIR USE AS HIGHLY SELECTIVE ADENOSINE A2A RECEPTOR ANTAGONISTS” (priority 2009, published 2011).

Experiment [1] has as its target T1, human adenosine A2A receptor (Homo sapiens, UniProt P29274).
T1 construct: expressed in transfected cells; host or cells: CHO-K1 cells with cAMP inducible beta-galactosidase reporter gene
The experiment is described as follows: Adenosine A2A Receptor Functional Assay (A2AGAL2). The settings on record: for IC50: CHO-K1 cells overexpressing human A2A receptor, cAMP inducible beta-galactosidase reporter, antagonist mode vs 15 nM NECA challenge; for A1/A2A: selectivity ratio of A1Gal2 value to A2AGal2 value. Type of experiment: cell-based. How it is done:
Adenosine A2A Receptor Functional Assay (A2AGAL2)
To initiate the functional assay, cryopreserved CHO—K1 cells overexpressing the human adenosine A2A receptor and containing a cAMP inducible beta-galactosidase reporter gene were thawed, centrifuged, DMSO containing media removed, and then seeded with fresh culture media into clear 384-well tissue culture treated plates (BD #353961) at a concentration of 10K cells/well. Prior to assay, these plates were cultured for two days at 37° C., 5% CO2, 90% Rh. On the day of the functional assay, culture media was removed and replaced with 45 μL assay medium (Hams/F-12 Modified (Mediatech #10-080CV) supplemented w/0.1% BSA). Test compounds were diluted and 11 point curves created at a 1000× concentration in 100% DMSO. Immediately after addition of assay media to the cell plates, 50 nL of the appropriate test compound antagonist or agonist control curves were added to cell plates using a Cartesian Hummingbird. Compound curves were allowed to incubate at room temperature on cell plates for approximately 15 minutes before addition of a 15 nM NECA (Sigma E2387) agonist challenge (5 μL volume). A control curve of NECA, a DMSO/Media control, and a single dose of Forskolin (Sigma F3917) were also included on each plate. After additions, cell plates were allowed to incubate at 37° C., 5% CO2, 90% Rh for 5.5-6 hours. After incubation, media were removed, and cell plates were washed 1×50 μL with DPBS w/o Ca & Mg (Mediatech 21-031-CV). Into dry wells, 20 μL of 1× Reporter Lysis Buffer (Promega E3971 (diluted in dH2O from 5× stock)) was added to each well and plates frozen at −20° C. overnight. For β-galactosidase enzyme colorimetric assay, plates were thawed out at room temperature and 20 μL 2× assay buffer (Promega) was added to each well. Color was allowed to develop at 37° C., 5% CO2, 90% Rh for 1-1.5 h or until reasonable signal appeared. The colorimetric reaction was stopped with the addition of 60 μL/well 1M sodium carbonate. Plates were counted at 405 nm on a SpectraMax Microplate Reader (Molecular Devices). Data was analyzed in Microsoft Excel and IC/EC50 curves were fit using a standardized macro.

Experiment [2] addresses T2, human adenosine A1 receptor (Homo sapiens, UniProt P30542).
T2 construct: expressed in transfected cells; host or cells: CHO-K1 cells with cAMP inducible beta-galactosidase reporter gene
T2 sequence (P30542 1-326): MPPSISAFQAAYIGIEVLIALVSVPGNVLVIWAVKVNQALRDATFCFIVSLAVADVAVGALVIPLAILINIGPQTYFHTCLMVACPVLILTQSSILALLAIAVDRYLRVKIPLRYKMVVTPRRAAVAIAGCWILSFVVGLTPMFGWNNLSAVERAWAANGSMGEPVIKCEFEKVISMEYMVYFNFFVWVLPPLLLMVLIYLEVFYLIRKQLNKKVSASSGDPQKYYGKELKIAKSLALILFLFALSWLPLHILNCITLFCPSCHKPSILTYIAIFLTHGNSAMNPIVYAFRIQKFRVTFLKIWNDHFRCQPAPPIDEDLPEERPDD
The experiment is described as follows: Adenosine A1 Receptor Functional Assay (A1GAL2). It is filed as cell-based. The settings on record: CHO-K1 cells overexpressing human A1 receptor, cAMP inducible beta-galactosidase reporter; antagonist mode vs 4 nM r-PIA/1 uM Forskolin challenge. How it is done: Adenosine A1 Receptor Functional Assay (A1GAL2)
To initiate the functional assay, cryopreserved CHO—K1 cells overexpressing the human adenosine A1 receptor and containing a cAMP inducible beta-galactosidase reporter gene were thawed, centrifuged, DMSO containing media removed, and then seeded with fresh culture media into clear 384-well tissue culture treated plates (BD #353961) at a concentration of 10K cells/well. Prior to assay, these plates were cultured for two days at 37° C., 5% CO2, 90% Rh. On the day of the functional assay, culture media was removed and replaced with 45 μL assay medium (Hams/F-12 Modified (Mediatech # 10-080CV) supplemented w/0.1% BSA). Test compounds were diluted and 11 point curves created at a 1000× concentration in 100% DMSO. Immediately after addition of assay media to the cell plates, […] of the appropriate test compound antagonist or agonist control curves were added to cell plates using a Cartesian Hummingbird. Compound curves were allowed to incubate at room temperature on cell plates for approximately 15 minutes before addition of a 4 nM r-PIA (Sigma P4532)/1 uM Forskolin (Sigma F3917) agonist challenge (5 μL volume). A control curve of r-PIA in 1 uM Forskolin, a DMSO/Media control, and a single dose of Forskolin were also included on each plate. After additions, cell plates were allowed to incubate at 37° C., 5% CO2, 90% Rh for 5.5-6 hours. After incubation, media was removed, and cell plates were washed 1×50 μL with DPBS w/o Ca & Mg (Mediatech 21-031-CV). Into dry wells, 20 μL of 1× Reporter Lysis Buffer (Promega E3971 (diluted in dH2O from 5× stock)) was added to each well and plates frozen at −20° C. overnight. For β-galactosidase enzyme colorimetric assay, plates were thawed out at room temperature and 20 μL 2× assay buffer (Promega) was added to each well. Color was allowed to develop at 37° C., 5% CO2, 90% Rh for 1-1.5 h or until reasonable signal appeared. The colorimetric reaction was stopped with the addition of 60 μL/well 1M sodium carbonate. Plates were counted at 405 nm on a SpectraMax Microplate Reader (Molecular Devices). Data was analyzed in Microsoft Excel and IC/EC50 curves were fit using a standardized macro.

T1 sequence (P29274 whole entry): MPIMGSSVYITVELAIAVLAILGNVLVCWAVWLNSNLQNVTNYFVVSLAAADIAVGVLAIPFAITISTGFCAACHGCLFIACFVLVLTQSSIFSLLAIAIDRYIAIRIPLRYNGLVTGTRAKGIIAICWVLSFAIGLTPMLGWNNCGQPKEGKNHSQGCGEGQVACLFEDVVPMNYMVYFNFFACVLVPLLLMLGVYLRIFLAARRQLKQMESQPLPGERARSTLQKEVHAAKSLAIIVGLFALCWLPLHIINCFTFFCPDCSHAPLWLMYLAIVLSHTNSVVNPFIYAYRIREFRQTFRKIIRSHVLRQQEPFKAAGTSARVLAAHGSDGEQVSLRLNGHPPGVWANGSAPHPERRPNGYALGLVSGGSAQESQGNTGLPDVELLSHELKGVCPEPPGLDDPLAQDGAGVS

Take `Cc1nc(-c2ccccc2)sc1-c1cccc2c1-c1nc(N)nc(-c3ccccc3)c1C2=O` [Example 1, 2-Amino-9-(4-methyl-2-phenyl-thiazol-5-yl)-4-phenyl-indeno[1,2-d]pyrimidin-5-one]: in experiment [1], the IC50 stood at 7.1 nM and the A1/A2A is 1056.34. This compound had an IC50 in experiment [2] of 7500 nM.

As for `Nc1nc(-c2ccc(F)cc2)c2c(n1)-c1c(cccc1-c1cnn(CCN3CCOCC3)c1)C2=O` [Example 2, 2-Amino-4-(4-fluoro-phenyl)-9-[1-(2-morpholin-4-yl-ethyl)-1H-pyrazol-4-yl]-indeno[1,2-d]pyrimidin-5-one], in experiment [1], the half-inhibitory concentration (IC50) came out at 12.7 nM and the A1/A2A came to 160.288. In addition, in experiment [2], the midpoint of inhibition, the IC50, lay at 2030 nM.

Take `Cc1nc(-c2ccc(C(F)(F)F)cc2)sc1-c1cccc2c1-c1nc(N)nc(-c3ccc(F)cc3)c1C2=O` [Example 3, 2-Amino-4-(4-fluoro-phenyl)-9-[4-methyl-2-(4-trifluoromethyl-phenyl)-thiazol-5-yl]-indeno[1,2-d]pyrimidin-5-one]: in experiment [1], half-maximal inhibition (IC50) required 50 nM and the A1/A2A turned out to be 108. For the same compound, the IC50 in experiment [2] came out at 5400 nM.

For `N#Cc1ccc(-c2cccc3c2-c2nc(N)nc(-c4ccccc4)c2C3=O)s1` [Example 4, 5-(2-Amino-5-oxo-4-phenyl-5H-indeno[1,2-d]pyrimidin-9-yl)-thiophene-2-carbonitrile], in experiment [1], half-maximal inhibition (IC50) was put at 1.3 nM and the A1/A2A came to 92.3077. In addition, half-maximal inhibition in experiment [2] (IC50) required 120 nM.

With `Cc1nc(-c2ccccc2)sc1-c1cccc2c1-c1nc(N)nc(-c3ccc(F)cc3)c1C2=O` [Example 5, 2-Amino-4-(4-fluoro-phenyl)-9-(4-methyl-2-phenyl-thiazol-5-yl)-indeno[1,2-d]pyrimidin-5-one], the figures for the 50% inhibitory concentration (IC50) in experiment [1] and in experiment [2] were 17 nM and 920 nM, respectively.

With `CCOC(=O)Cn1cc(-c2cccc3c2-c2nc(N)nc(-c4ccc(F)cc4)c2C3=O)cn1` [Example 6, {4-[2-Amino-4-(4-fluoro-phenyl)-5-oxo-5H-indeno[1,2-d]pyrimidin-9-yl]-pyrazol-1-yl}-acetic acid ethyl ester], the values for the concentration for half-maximal inhibition (IC50) in experiment [1] and in experiment [2] were 4.2 nM and 225 nM, respectively. In addition, the A1/A2A in experiment [1] came out at 53.6847.

As to `Cc1c(-c2cccc3c2-c2nc(N)nc(-c4ccccc4)c2C3=O)cnn1-c1ccccc1` [Example 7, 2-Amino-9-(5-methyl-1-phenyl-1H-pyrazol-4-yl)-4-phenyl-indeno [1,2-d]pyrimidin-5-one], in experiment [1], it took 17 nM to reach half-maximal inhibition (IC50) and the A1/A2A was 51.1765. This compound had a half-maximal inhibitory concentration (IC50) in experiment [2] of 870 nM.

For `Nc1nc(-c2ccccc2)c2c(n1)-c1c(cccc1-c1ccc(N3CCN(Cc4ccccc4)CC3)nc1)C2=O` [Example 8, 2-Amino-9-[6-(4-benzyl-piperazin-1-yl)-pyridin-3-yl]-4-phenyl-indeno [1,2-d]pyrimidin-5-one], in experiment [1], the IC50 was determined as 5.6 nM and the A1/A2A came out at 100. The compound further yielded an IC50 in experiment [2] of 560 nM.

For the compound `Nc1nc(-c2ccc(F)cc2)c2c(n1)-c1c(cccc1-c1ccc(N3CCN(CC4CC4)CC3)nc1)C2=O` [Example 9, 2-Amino-9-[6-(4-cyclopropylmethyl-piperazin-1-yl)-pyridin-3-yl]-4-(4-fluoro-phenyl)-indeno[1,2-d]pyrimidin-5-one], in experiment [1], the half-maximal inhibitory concentration (IC50) worked out at 7.9 nM and the A1/A2A turned out to be 73.4177. Inhibition in experiment [2] was half-maximal at 580 nM (IC50).

For `Cc1cc(-c2cccc3c2-c2nc(N)nc(-c4ccccc4)c2C3=O)cnc1N1CCN(C)CC1` [Example 10, 2-Amino-9-[5-methyl-6-(4-methyl-piperazin-1-yl)-pyridin-3-yl]-4-phenyl-indeno [1,2-d]pyrimidin-5-one], in experiment [1], the 50% inhibitory concentration (IC50) stood at 3 nM and the A1/A2A is recorded as 63.3333. In experiment [2], this compound had a half-maximal inhibitory concentration (IC50) of 190 nM.

Regarding `CC(C)CCN1CCN(c2ccc(-c3cccc4c3-c3nc(N)nc(-c5ccc(F)cc5)c3C4=O)cn2)CC1` [Example 11, 2-Amino-4-(4-fluoro-phenyl)-9-{6-[4-(3-methyl-butyl)-piperazin-1-yl]-pyridin-3-yl}-indeno[1,2-d]pyrimidin-5-one], in experiment [1], inhibition was half-maximal at 18 nM (IC50) and the A1/A2A is reported as 55.5556. Also, in experiment [2], half-maximal inhibition (IC50) required 1000 nM.
